Results reported in the supplement of paper PMC11451515.

Test system: NOMO1
Test: cell viability relative to DMSO control; higher = less cytotoxic
Details: 48 h
In short: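 Three leukemia lines were tested: NOMO1 and SEM at 500 cells/well and P12-Ichikawa at 1000 cells/well. Each was adapted for at least four passages in each medium and seeded in 5 μl in 1536-well plates, and library compounds in DMSO were pin-dosed from 47 μM to 0.79 nM in 11 threefold steps. After 48 h at 37°C, CellTiter-Glo One luminescence was read. Viability is a percentage relative to DMSO wells on each plate, with cell-free wells as background.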

[1] = HPLM + 10% dialyzed FBS, 0.000781 µM
[2] = HPLM + 10% dialyzed FBS, 0.00234 µM
[3] = HPLM + 10% dialyzed FBS, 0.00702 µM
[4] = HPLM + 10% dialyzed FBS, 0.0211 µM
[5] = HPLM + 10% dialyzed FBS, 0.0632 µM
[6] = HPLM + 10% dialyzed FBS, 0.19 µM
[7] = HPLM + 10% dialyzed FBS, 0.569 µM
[8] = HPLM + 10% dialyzed FBS, 1.71 µM
[9] = HPLM + 10% dialyzed FBS, 5.12 µM
[10] = HPLM + 10% dialyzed FBS, 15.4 µM
[11] = HPLM + 10% dialyzed FBS, 46.1 µM
[12] = RPMI 5 mM glucose + 10% FBS, 0.000781 µM
[13] = RPMI 5 mM glucose + 10% FBS, 0.00234 µM
[14] = RPMI 5 mM glucose + 10% FBS, 0.00702 µM
[15] = RPMI 5 mM glucose + 10% FBS, 0.0211 µM
[16] = RPMI 5 mM glucose + 10% FBS, 0.0632 µM
[17] = RPMI 5 mM glucose + 10% FBS, 0.19 µM
[18] = RPMI 5 mM glucose + 10% FBS, 0.569 µM
[19] = RPMI 5 mM glucose + 10% FBS, 1.71 µM
[20] = RPMI 5 mM glucose + 10% FBS, 5.12 µM
[21] = RPMI 5 mM glucose + 10% FBS, 15.4 µM
[22] = RPMI 5 mM glucose + 10% FBS, 46.1 µM
[23] = RPMI 5 mM glucose + 10% dialyzed FBS, 0.000781 µM
[24] = RPMI 5 mM glucose + 10% dialyzed FBS, 0.00234 µM
[25] = RPMI 5 mM glucose + 10% dialyzed FBS, 0.00702 µM
[26] = RPMI 5 mM glucose + 10% dialyzed FBS, 0.0211 µM
[27] = RPMI 5 mM glucose + 10% dialyzed FBS, 0.0632 µM
[28] = RPMI 5 mM glucose + 10% dialyzed FBS, 0.19 µM
[29] = RPMI 5 mM glucose + 10% dialyzed FBS, 0.569 µM
[30] = RPMI 5 mM glucose + 10% dialyzed FBS, 1.71 µM
[31] = RPMI 5 mM glucose + 10% dialyzed FBS, 5.12 µM
[32] = RPMI 5 mM glucose + 10% dialyzed FBS, 15.4 µM
[33] = RPMI 5 mM glucose + 10% dialyzed FBS, 46.1 µM

Structure (SMILES) | cell viability [1] | cell viability [2] | cell viability [3] | cell viability [4] | cell viability [5] | cell viability [6] | cell viability [7] | cell viability [8] | cell viability [9] | cell viability [10] | cell viability [11] | cell viability [12] | cell viability [13] | cell viability [14] | cell viability [15] | cell viability [16] | cell viability [17] | cell viability [18] | cell viability [19] | cell viability [20] | cell viability [21] | cell viability [22] | cell viability [23] | cell viability [24] | cell viability [25] | cell viability [26] | cell viability [27] | cell viability [28] | cell viability [29] | cell viability [30] | cell viability [31] | cell viability [32] | cell viability [33]
O=C(O)CCc1ccc(NCc2cccc(Oc3ccccc3)c2)cc1 | 97.4% | 105% | 134% | 132% | 119% | 96.9% | 114% | 111% | 122% | 117% | 141% | 85.8% | 99.2% | 108% | 102% | 119% | 111% | 105% | 102% | 109% | 103% | 123% | 82.6% | 103% | 95.1% | 92.5% | 105% | 105% | 103% | 98.6% | 111% | 119% | 104%
C[C@@H](Oc1ccc2[nH]nc(/C=C/c3cnn(CCO)c3)c2c1)c1c(Cl)cncc1Cl | 99.5% | 102% | 98.9% | 93.9% | 99.9% | 89.7% | 86% | 86.4% | 70.9% | 38.4% | 41.3% | 94.6% | 108% | 89.2% | 86% | 80.9% | 83.6% | 89.3% | 76.3% | 74.2% | 40% | 33.9% | 82.9% | 92.3% | 89% | 85.2% | 92.8% | 99.1% | 87.4% | 73.5% | 80.9% | 40.9% | 34.9%
NC/1=N/C(=O)C2=C([NH]C=C2CCC3=CC=C(C=C3)C(=O)N[C@@H](CCC(O)=O)C(O)=O)N1 | 107% | 99.2% | 110% | 104% | 107% | 116% | 78.2% | 46.2% | 41.8% | 38.8% | 29.7% | 88% | 92.2% | 103% | 94.2% | 96.2% | 94.4% | 93.9% | 112% | 92.5% | 78.9% | 75.5% | 104% | 91.4% | 96% | 105% | 103% | 104% | 103% | 86% | 40.5% | 40.1% | 38.3%
O=C1C(CCC(O)c2ccc(F)cc2)C(c2ccc(O)cc2)N1c1ccc(F)cc1 (stereo unspecified) | 111% | 104% | 123% | 124% | 113% | 132% | 133% | 132% | 146% | 132% | 47.5% | 114% | 114% | 108% | 106% | 110% | 120% | 112% | 122% | 122% | 130% | 127% | 101% | 98.9% | 107% | 113% | 92.7% | 118% | 111% | 103% | 117% | 106% | 103%
CCCC[N+]1(C)[C@@H]2CC(OC(=O)[C@H](CO)c3ccccc3)C[C@H]1[C@@H]1O[C@@H]12 (stereo partly specified) | – | – | – | – | – | – | – | – | – | – | – | 106% | 107% | 118% | 120% | 125% | 102% | 114% | 97.9% | 93.6% | 77.7% | 15.6% | 120% | 124% | 136% | 127% | 129% | 118% | 121% | 122% | 117% | 105% | 22.7%
CCCCC(F)(F)[C@@]1(O)CC[C@H]2[C@@H](CC(=O)[C@@H]2CCCCCCC(=O)O)O1 | – | – | – | – | – | – | – | – | – | – | – | 123% | 123% | 126% | 115% | 118% | 117% | 115% | 108% | 121% | 111% | 103% | – | – | – | – | – | – | – | – | – | – | –
CON(C)C(=O)N1\N=C(/S[C@]1(CCCN)C2=CC=CC=C2)C3=CC(=CC=C3F)F | 65% | 41.6% | 39.2% | 46.7% | 46.2% | 40.4% | 30.8% | 37.2% | 32.1% | 24.7% | 24.1% | 55.1% | 22.8% | 26.3% | 27.1% | 21.7% | 20% | 23.4% | 22.8% | 20.6% | 15.6% | 15.7% | 96% | 30.7% | 36.8% | 35% | 32.2% | 31.2% | 27.9% | 32.6% | 28.5% | 22.6% | 22.5%
CCNC(=O)c1noc(-c2cc(C(C)C)c(O)cc2O)c1-c1ccc(CN2CCOCC2)cc1 | 91.6% | 98.5% | 109% | 121% | 76.2% | 19.2% | 24.1% | 20% | 20.9% | 19.3% | 21.2% | 119% | 108% | 123% | 116% | 92.6% | 13.5% | 13.7% | 15.4% | 16% | 16% | 19.3% | 107% | 128% | 114% | 131% | 96.4% | 18.9% | 17.3% | 20.3% | 17.4% | 19.5% | 22.4%
